Measurements: US11400106B2, “Methods for inhibiting microbe growth” (priority 2018, dated 2022)
Where two headings read alike, the source gives them in different places.

Legend:
S. aureus = assay: microbe, parasite or virus in culture; conditions: for MIC: Staphylococcus aureus, 18 h, read-out: MIC, S. aureus, MHB−
Description: (§1) In the following experiments, bacterial cells were cultured in 96-well microtiter plates in cation-adjusted Mueller-Hinton Broth (MHB) for 18 h at 37° C. The main strains used were E. coli (K-12 BW25113) (placed in stationary incubator) and S. aureus (Newman Strain) (incubated at 250 r.p.m). Knockout strains (ΔtolcC and ΔychM) were used from the Keio knockout collection (Baba et al., Construction of Escherichia coli K-12 in-frame, single-gene knockout mutants: the Keio collection. Mol Syst Biol 2, 2006 0008, doi:10.1038/msb4100050 (2006)). For MIC determination and checkerboard analyses, Clinical & Laboratory Standards Institute (CLSI) protocol was used. […] DiSC3 loading of S. aureus cells was performed as previously described (Farha et al., Collapsing the proton motive force to identify synergistic combinations against Staphylococcus aureus. Chemistry & biology 20, 1168-1178, doi:10.1016/j.chembiol.2013.07.006 (2013)). CCCP concentration of 20 μM was used. pH adjustments were made by addition of HCl or NaOH. INT assay and ATP bioluminescence assays were performed as previously described (Farha et al., Collapsing the proton motive force to identify synergistic combinations against Staphylococcus aureus. Chemistry & biology 20, 1168-1178, doi:10.1016/j.chembiol.2013.07.006 (2013)). For chemical-genomic studies, the Keio library was grown overnight in cation-adjusted MHB broth, in 384-well plates. From these, treatment plates (25 mM sodium bicarbonate, or a sterile water control) were inoculated and grown for 15 hours at 37° C., in a stationary incubator. Data was normalized according to Mangat et al (Mangat et al., Rank ordering plate data facilitates data visualization and normalization in high-throughput screening. J Biomol Screen 19, 1314-1320, doi:10.1177/1087057114534298 (2014)), with gene products and GO terms mined from EcoCyc. The GFP promoter library (Keseler et al., EcoCyc: fusing model organism databases with systems biology. Nucleic Acids Res 41, D605-612, doi:10.1093/nar/gks1027 (2013)) was grown for 18 hours at ambient temperature with the same inoculation strategy as with the Keio collection. The analysis pipeline of Zaslaver et al (Zaslaver et al., A comprehensive library of fluorescent transcriptional reporters for Escherichia coli. Nat Methods 3, 623-628, doi:10.1038/nmeth895 (2006)) was used to generate maps of promoter activity, from which lists of promoters with increased or decreased activity were compiled.
(§2) Fold enhancement in MICs in the media supplemented with sodium bicarbonate is represented by a positive fold, whereas suppression of activity is represented by a negative fold.
(§3) The effect of sodium bicarbonate on the activity of additional antibacterial agents was investigated. Clinical isolates of various bacteria were obtained from the ATCC and the IHMA.
(§4) The effect of sodium bicarbonate on the activity of cationic antiseptic agents was investigated. Clinical isolates of various bacteria were obtained from the ATCC and the IHMA.

E. coli = assay: microbe, parasite or virus in culture; type: cell-based, Escherichia coli; conditions: for MIC: Escherichia coli, 18 h, read-out: MIC, E. coli, MHB−
Description: as §1, §2, §3, §4

[1] = MHB in the absence of sodium bicarbonate
[2] = S. aureus (Newman strain) (MSSA)
[3] = antibiotic agents, MHB in the absence of sodium bicarbonate
[4] = antibiotic agents, fold shift in MIC, MHB− vs MHB+

For CN[C@@H]1[C@@H](O[C@H]2O[C@H](CO)[C@@H](N)[C@H](O)[C@H]2O)OC2C[C@@H](N)[C@@H](O[C@H]3[C@H](O)[C@@H](O)[C@H](N)C[C@@H]3N)OC2[C@@H]1O (stereo partly drawn) [Apramycin], the “MIC, S. aureus, MHB+” value (S. aureus) was 32, the MIC (S. aureus) was 16 µg/mL and the MIC (E. coli; [1]) was 32 µg/mL.

With Hyaluronic acid the “MIC in MHB” value (S. aureus; [2]) was 4 µg/mL, the “MIC in MHB + 25 mM bicarbonate” value (S. aureus; [2]) was 0.0625 µg/mL and the “enhancement of antimicrobial activity in the presence of bicarbonate” value (S. aureus; S. aureus, 25 mM sodium bicarbonate) was 64 fold. For the same compound, the “enhancement of antimicrobial activity in the presence of bicarbonate” value (E. coli) was 64 fold.

CO/N=C(\C(=O)N[C@@H]1C(=O)N2C(C(=O)O)=C(CSc3nc(=O)c(=O)[nH]n3C)CS[C@H]12)c1csc(N)n1 [Ceftriaxone] was tested, and the “MIC, S. aureus, MHB+” value (S. aureus) was 16, the MIC (S. aureus) was 4 µg/mL and the MIC (E. coli; [1]) was 0.625 µg/mL.

In the case of NC(=O)c1ccccc1 [Benzamide], the “MIC, S. aureus, MHB+” value (S. aureus) is reported as >128 μg of antimicrobial agent/mL of buffer, the MIC (S. aureus) is reported as over 128 µg/mL and the “MIC, E. coli, MHB+” value (E. coli) is reported as >128 μg of antimicrobial agent/mL of buffer. For the same compound, the MIC (E. coli; [3]) was over 128 µg/mL.

CN[C@H]1C[C@@H](N)[C@H](O)[C@@H](O[C@@H]2O[C@H](CO)[C@H](O)[C@@H]3OC4(O[C@H]23)O[C@H]([C@@H](N)CO)[C@H](O)[C@H](O)[C@H]4O)[C@@H]1O (stereo partly drawn) [Hygromycin B] was tested, and the “MIC, S. aureus, MHB−” value (S. aureus; [3]) was >128 μg of antimicrobial agent/mL of buffer, the “MIC, S. aureus, MHB+” value (S. aureus; antibiotic agents, MHB in the presence of 25 mM sodium bicarbonate) was 64 μg of antimicrobial agent/mL of buffer and the “Fold, S. aureus” value (S. aureus; [4]) was 2. For the same compound, the “MIC, E. coli, MHB+” value (E. coli) was 16 μg of antimicrobial agent/mL of buffer, the “MIC, E. coli, MHB−” value (E. coli; [3]) was 32 μg of antimicrobial agent/mL of buffer and the “Fold, E. coli” value (E. coli; [4]) was 2.

NCC[C@H](O)C(=O)N[C@@H]1C[C@H](N)[C@@H](O[C@H]2O[C@H](CN)[C@@H](O)[C@H](O)[C@H]2O)[C@H](O)[C@H]1O[C@H]1O[C@H](CO)[C@@H](O)[C@H](N)[C@H]1O [Amikacin] was tested, and the “MIC, S. aureus, MHB+” value (S. aureus) was 8 μg of antimicrobial agent/mL of buffer, the MIC (S. aureus) was 4 µg/mL and the “MIC, E. coli, MHB+” value (E. coli) was 4 μg of antimicrobial agent/mL of buffer. It also gave an MIC (E. coli; [3]) of 4 µg/mL.

In the case of Polyhexanide, the “MIC, S. aureus, MHB” value (S. aureus; antiseptic agents, MHB in the absence of sodium bicarbonate) is reported as 0.5 μg of antimicrobial agent/mL of buffer, the “MIC, S. aureus, MHB+” value (S. aureus; antiseptic agents, MHB in the presence of 25 mM sodium bicarbonate) is reported as 0.25 μg of antimicrobial agent/mL of buffer and the “Fold, S. aureus” value (S. aureus; antiseptic agents, fold shift in MIC) is reported as 2. The “Fold, E. coli” value (E. coli) was 2, the “MIC, E. coli, MHB” value (E. coli) was 1 μg of antimicrobial agent/mL of buffer and the “MIC, E. coli, MHB+” value (E. coli) was 0.5 μg of antimicrobial agent/mL of buffer.

Polymyxin B was tested, and the “Fold, S. aureus” value (S. aureus) was 8, the “MIC, S. aureus, MHB−” value (S. aureus; [1]) was 256 and the “MIC, S. aureus, MHB+” value (S. aureus; MHB in the presence of 25 mM sodium bicarbonate) was 32. The “effect of 25 mM sodium bicarbonate on antibacterial activity” value (S. aureus; S. aureus, result in words) was “enhanced” and the “Fold, E. coli” value (E. coli) was −2.

In the case of C[C@H]1COc2c(N3CCN(C)CC3)c(F)cc3c(=O)c(C(=O)O)cn1c23 [Levofloxacin], the “MIC, S. aureus, MHB+” value (S. aureus) is reported as 1, the MIC (S. aureus) is reported as 0.5 µg/mL and the MIC (E. coli; [1]) is reported as 0.0313 µg/mL.

For C[C@H]1c2cccc(O)c2C(=O)C2=C(O)[C@]3(O)C(=O)C(C(N)=O)=C(O)[C@@H](N(C)C)[C@@H]3[C@@H](O)[C@@H]21 [Doxycycline], the “MIC, S. aureus, MHB+” value (S. aureus) was 2, the MIC (S. aureus) was 0.125 µg/mL and the MIC (E. coli; [1]) was 1 µg/mL.

CO/N=C(\C(=O)N[C@@H]1C(=O)N2C(C(=O)O)=C(COC(C)=O)CS[C@H]12)c1csc(N)n1 [Cefotaxime] was tested, and the “MIC, S. aureus, MHB+” value (S. aureus) was 2 μg of antimicrobial agent/mL of buffer, the MIC (S. aureus) was 0.5 µg/mL and the “MIC, E. coli, MHB+” value (E. coli) was 8 μg of antimicrobial agent/mL of buffer. It also gave an MIC (E. coli; [3]) of 4 µg/mL.

In the case of O=CN(O)CCCP(=O)(O)O [Fosmidomycin], the “MIC, S. aureus, MHB+” value (S. aureus) is reported as over 64, the MIC (S. aureus) is reported as over 64 µg/mL and the MIC (E. coli; [1]) is reported as 16 µg/mL.
